Data as given in ChEMBL document CHEMBL1201862, “PubChem BioAssay data set” (2004).
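The compound was tested at five concentrations on cells cultured in 96-well plates, with a 48-hour exposure period. Abbreviation: GI50, concentration required for 50% inhibition of growth.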 The source made the active and inactive calls. No stated cut-off is given here; in the data, active = GI50 up to about 1.1 µM and inactive = higher.

Experiments:
Experiment in all cases: DTP human tumour cell line panel, 48 h
RXF 393 = test system: RXF 393
HL-60 = test system: HL-60
KM12 = test system: KM12
SW-620 = test system: SW-620
SK-MEL-5 = test system: SK-MEL-5
SF-268 = test system: SF-268
ACHN = test system: ACHN
OVCAR-3 = test system: OVCAR-3
MOLT-4 = test system: MOLT-4
U-251 = test system: U-251
HT-29 = test system: HT-29
HOP-92 = test system: HOP-92
TK-10 = test system: TK-10
A498 = test system: A498
OVCAR-4 = test system: OVCAR-4
SNB-75 = test system: SNB-75
UO-31 = test system: UO-31

Row | Structure (SMILES) | GI50 (RXF 393) | GI50 (HL-60) | GI50 (KM12) | GI50 (SW-620) | GI50 (SK-MEL-5) | GI50 (SF-268) | GI50 (ACHN) | GI50 (OVCAR-3) | GI50 (MOLT-4) | GI50 (U-251) | GI50 (HT-29) | GI50 (HOP-92) | GI50 (TK-10) | GI50 (A498) | GI50 (OVCAR-4) | GI50 (SNB-75) | GI50 (UO-31)
1 | Cn1c2c(c3ccccc31)C1C(=O)N(c3ccccc3)C(=O)C1CC2 (stereo unspecified) | > 303 µM (inactive) | > 303 µM (inactive) | > 303 µM (inactive) | > 303 µM (inactive) | > 303 µM (inactive) | > 303 µM (inactive) | > 303 µM (inactive) | 123 µM (inactive) | > 303 µM (inactive) | > 303 µM (inactive) | > 303 µM (inactive) | > 303 µM (inactive) | > 303 µM (inactive) |  |  |  | 
2 | O=C1C2=C(c3ccccc31)C(c1cccc(Cl)c1)NC(S)=N2 (stereo unspecified) |  | > 100 µM (inactive) | 45.9 µM (inactive) | > 100 µM (inactive) | 55.1 µM (inactive) | > 100 µM (inactive) | 68.1 µM (inactive) | > 100 µM (inactive) | 91.8 µM (inactive) | > 100 µM (inactive) | > 100 µM (inactive) | > 100 µM (inactive) | > 100 µM (inactive) | > 100 µM (inactive) | 76.7 µM (inactive) | 31.9 µM (inactive) | 46.2 µM (inactive)
3 | CCOc1ccc(/N=N/c2c(-c3ccccc3)nn(C(=O)CC(=O)Nc3cccc(C)c3)c2-c2ccccc2)cc1 | 57.9 µM (inactive) | > 100 µM (inactive) | 41.5 µM (inactive) | > 100 µM (inactive) | 90.2 µM (inactive) | 39 µM (inactive) | 38.5 µM (inactive) | > 100 µM (inactive) | > 100 µM (inactive) | 56.2 µM (inactive) | 22 µM (inactive) | > 100 µM (inactive) | > 100 µM (inactive) |  | > 100 µM (inactive) | 27.9 µM (inactive) | 17.7 µM (inactive)
4 | CC1=C[C@H]2C[C@@]3(C)O[C@@H]([C@]4(C)CC[C@H]([C@@H](C)C(=O)O)OO4)CC3C(C)(C)[C@H]2CC1 (stereo partly specified) | 1.25 µM (inactive) | 0.114 µM (active) | 0.397 µM (active) | 0.259 µM (active) |  | 2.17 µM (inactive) | 1.57 µM (inactive) | 1.81 µM (inactive) |  | 1.65 µM (inactive) | 0.479 µM (active) | 0.078 µM (active) | 2.79 µM (inactive) |  | 1.5 µM (inactive) | 1.08 µM (active) | 1.2 µM (inactive)
5 | O=C(COc1ccc(Cl)cc1)N1N=C(c2ccc(Cl)cc2)CC1(O)c1ccccc1 (stereo unspecified) |  | 6.5 µM (inactive) | 14.2 µM (inactive) | 21.2 µM (inactive) | 14.5 µM (inactive) | > 43.9 µM (inactive) | 9.04 µM (inactive) | 16.3 µM (inactive) | 4.95 µM (inactive) | 16.7 µM (inactive) | 12.9 µM (inactive) | 21.5 µM (inactive) | 26.7 µM (inactive) | 13.5 µM (inactive) | 7.48 µM (inactive) | 29.9 µM (inactive) | > 23.7 µM (inactive)
6 | COc1ccccc1NC(=O)CC(=O)n1nc(-c2ccccc2)c(/N=N/c2ccccc2[N+](=O)[O-])c1-c1ccccc1 | 44.7 µM (inactive) | > 100 µM (inactive) | 36.1 µM (inactive) | > 100 µM (inactive) | 94.4 µM (inactive) | 95.3 µM (inactive) | 32.2 µM (inactive) | 69 µM (inactive) | 64.7 µM (inactive) | 56.5 µM (inactive) | 25.2 µM (inactive) | 81.7 µM (inactive) | > 100 µM (inactive) |  | > 100 µM (inactive) | 17.8 µM (inactive) | 38.4 µM (inactive)
7 | CC(C)CN(CC(C)C)C(=O)C1CCCC[C@@H]1C(=O)O (stereo partly specified) |  | > 100 µM (inactive) | > 100 µM (inactive) | > 100 µM (inactive) | > 100 µM (inactive) | > 100 µM (inactive) | > 100 µM (inactive) | > 100 µM (inactive) | > 100 µM (inactive) | > 100 µM (inactive) | > 100 µM (inactive) | > 100 µM (inactive) | > 100 µM (inactive) | > 100 µM (inactive) | > 100 µM (inactive) | > 100 µM (inactive) | > 100 µM (inactive)
8 | CC(C(=O)c1ccc(Cl)cc1)/C(=N/NC(=O)NN)C(=O)Nc1cccc(C(F)(F)F)c1 (stereo unspecified) | 22.8 µM (inactive) | > 100 µM (inactive) |  | > 100 µM (inactive) | > 100 µM (inactive) | > 100 µM (inactive) | > 100 µM (inactive) | > 100 µM (inactive) | > 100 µM (inactive) | > 100 µM (inactive) | > 100 µM (inactive) |  | > 100 µM (inactive) | > 100 µM (inactive) | > 100 µM (inactive) | > 100 µM (inactive) | > 100 µM (inactive)
9 | O=C(O)Cc1cc(=O)[nH]c2c1C(=O)CCC2 | > 100 µM (inactive) | > 100 µM (inactive) | > 100 µM (inactive) | > 100 µM (inactive) | > 100 µM (inactive) | > 100 µM (inactive) | > 100 µM (inactive) | > 100 µM (inactive) | > 100 µM (inactive) | > 100 µM (inactive) | > 100 µM (inactive) | > 100 µM (inactive) | > 100 µM (inactive) |  |  |  | > 100 µM (inactive)
